Laboratory results published in patent US20180110774A1, “COMPOSITIONS AND METHODS FOR TREATMENT OF PULMONARY HYPERTENSION” (STC.UNM, priority 2015, published 2018).

Key:
[1] = test system: perivascular T cells (CD3+); assay: Perivascular CD3+ T cells in lung sections of mice exposed to chronic hypoxia (immunohistochemistry); type: in vivo; conditions: WT mice, CH for 2, 5 or 21 days; SR1001 0.625 mg/day for 25 g mouse s.c.; vs vehicle
Procedure: FIGS. 5A-D—Inhibition of TH17 cell development decreases CH-induced increases in perivascular T cells. Following treatment, lungs sections were stained with an anti-CD3 antibody to allow quantification of CD3+ T cells in the perivascular region of the lungs. The RORyt specific inhibitor, SR1001 was delivered daily by sub-cutaneous injection (0.625 mg/day for 25 g mouse) for the length of normoxic or CH exposure. (A) Perivascular CD3+ cells from mice exposed to 2 days, (B) 5 days or (C) 21 days of normoxia or CH. (D) Representative images of lung sections from mice exposed to CH with or without SR1001. Values are means±SEM, *p<0.05 vs. normoxia vehicle. n=3-4/group, 5-15 arteries<150 μm outer circumference, per mouse, analyzed by 2-way ANOVA followed by multiple comparisons Student-Newman-Keuls test.
Methods: Age- and sex-matched mice C57BL/6J wild-type (WT), RAG1 KO mice (lack mature T and B cells), IL-17-GFP mice (express EGFP in cells expressing IL-17A), were used in these studies (The Jackson Laboratory). Mice were exposed to chronic hypoxia (CH) for 2 to 21 days in a hypobaric chamber maintained at a barometric pressure of 380 mmHg. Normoxic animals were housed in identical cages in the same facility under normobaric conditions (PB=630 mmHg in Albuquerque, N. Mex.). […]

CH-induced PH = assay: Development of chronic hypoxia (CH)-induced pulmonary hypertension, 21 days; type: in vivo; conditions: mice, CH 21 days; SR1001 0.625 mg/day for 25 g mouse s.c. osmotic pump
Procedure: FIGS. 6A-D—Inhibition of TH17 cell polarization attenuates the development of CH-induced PH. SR1001 prepared in propylene glycol, 0.625 mg/day for 25 g mouse, was delivered sub-cutaneously via an implantable osmotic pump. Mice were exposed to normoxia or chronic hypoxia for 21 days, at which point (A) RVSP, (B) Fulton's index, (C) pulmonary arterial % wall thickness (<150 μm diameter) and (D) hematocrit were measured. Values are means±SEM; *p<0.05 vs. normoxia vehicle #p<0.05 vs. normoxic SR1001, n=4-5/group, analyzed by 2-way ANOVA followed by multiple comparisons Student-Newman-Keuls test.
(§1) Methods: Age- and sex-matched mice C57BL/6J wild-type (WT), RAG1 KO mice (lack mature T and B cells), IL-17-GFP mice (express EGFP in cells expressing IL-17A), were used in these studies (The Jackson Laboratory). Mice were exposed to chronic hypoxia (CH) for 2 to 21 days in a hypobaric chamber maintained at a barometric pressure of 380 mmHg. Normoxic animals were housed in identical cages in the same facility under normobaric conditions (PB=630 mmHg in Albuquerque, N. Mex.).
CD4+ T cells contribute to chronic hypoxia-induced pulmonary hypertension. To directly assess the contribution of T cells to CH-induced PH, recombination-activating gene 1 (RAG1) knockout mice, which lack the enzyme that plays a crucial role in the development of T and B cells were studied. Therefore, RAG1 KO mice lack mature T and B cells (Mombaerts et al., 1992). RAG1 KO mice were exposed to CH for 21 days or left in normoxia. […] RVSP was measured by direct cardiac puncture under isoflurane anesthesia (Bierer et al., 2011). The inventors also isolated CD4^+ or CD8+ cells from the lymph nodes of WT mice by negative selection using a magnetic bead cell isolation kit (Miltenyi Biotec). 2.5×10^5 cells were injected into RAG1 KO mice. After 2 weeks mice were exposed to CH or normoxia.

established PH due to CH = assay: Established CH-induced pulmonary hypertension (reversal: 3 weeks CH, then SR1001 for 2 more weeks in CH); type: in vivo; conditions: mice
Procedure: FIGS. 7A-D—TH17 cell inhibition attenuates increases in RVSP in established PH. Wild-type mice were exposed to CH for 21 days followed by administration of SR1001 (25 mg/kg/day s.c.) for an additional 14 days in CH. (A) RVSP. (B) Fulton's index. (C) Pulmonary arterial remodeling. (D) % Hematocrit. Values are means±SEM; *p<0.05 vs. vehicle, n=5-6/group, analyzed by unpaired T-test.
as §1
To follow up on the immunologic timing of events, studies were undertaken to understand whether PH due to CH might be reversed once already established by inhibiting TH17 cell development. Therefore, after 3 weeks of CH, osmotic pumps containing SR1001 (0.625 mg/day for 25 g mouse). were implanted sub-cutaneously and animals were immediately returned to CH for an additional 2 weeks (5 weeks of CH total).

RORα = target: T1, RORα (Homo sapiens, UniProt P35398); conditions: selective inverse agonist; Solt et al., 2011, 2012; cited from earlier work
T1 sequence (P35398 1-523): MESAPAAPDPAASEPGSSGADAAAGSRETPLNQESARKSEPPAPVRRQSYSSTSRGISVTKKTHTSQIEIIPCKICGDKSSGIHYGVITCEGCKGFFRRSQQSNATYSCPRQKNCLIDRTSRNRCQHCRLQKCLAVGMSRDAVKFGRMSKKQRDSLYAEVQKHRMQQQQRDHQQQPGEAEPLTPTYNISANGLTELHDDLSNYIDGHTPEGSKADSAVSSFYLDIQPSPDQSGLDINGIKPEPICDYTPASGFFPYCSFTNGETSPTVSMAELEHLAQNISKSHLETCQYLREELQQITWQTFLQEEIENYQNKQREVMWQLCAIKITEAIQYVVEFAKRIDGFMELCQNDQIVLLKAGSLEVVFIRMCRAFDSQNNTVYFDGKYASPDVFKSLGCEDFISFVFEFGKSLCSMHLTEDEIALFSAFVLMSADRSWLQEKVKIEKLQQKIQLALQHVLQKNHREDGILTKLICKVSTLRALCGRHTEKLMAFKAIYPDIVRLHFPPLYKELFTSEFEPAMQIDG

RORγt = target: T2, RORγt (Homo sapiens, UniProt P51449); conditions: selective inverse agonist; Solt et al., 2011, 2012; cited from earlier work
T2 sequence (P51449 1-497 isoform P51449-2): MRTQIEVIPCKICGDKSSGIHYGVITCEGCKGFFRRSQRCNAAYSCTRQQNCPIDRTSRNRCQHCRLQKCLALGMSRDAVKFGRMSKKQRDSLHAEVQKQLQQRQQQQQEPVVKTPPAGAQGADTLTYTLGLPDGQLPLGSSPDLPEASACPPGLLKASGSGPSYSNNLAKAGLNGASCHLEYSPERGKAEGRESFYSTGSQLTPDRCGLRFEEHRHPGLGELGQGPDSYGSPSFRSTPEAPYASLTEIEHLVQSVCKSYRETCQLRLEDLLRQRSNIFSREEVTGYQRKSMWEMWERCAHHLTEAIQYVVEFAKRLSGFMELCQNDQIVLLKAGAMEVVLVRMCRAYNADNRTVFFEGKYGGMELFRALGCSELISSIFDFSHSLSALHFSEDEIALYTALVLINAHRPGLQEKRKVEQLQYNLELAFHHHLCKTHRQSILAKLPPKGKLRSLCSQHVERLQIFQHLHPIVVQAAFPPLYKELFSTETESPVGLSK

TH17 cell development [2] = conditions: Solt et al., 2011; cited from earlier work
TH17 cell development [3] = conditions: Solt et al., 2011; cited from earlier work; remark: listed apart in the source
[4] = 3 weeks CH then SR1001 for additional 2 weeks in CH

CC(=O)Nc1nc(C)c(S(=O)(=O)Nc2ccc(C(O)(C(F)(F)F)C(F)(F)F)cc2)s1 [SR1001, N-(5-(N-(4-(1,1,1,3,3,3-hexafluoro-2-hydroxypropan-2-yl)phenyl)sulfamoyl)-4-methylthiazol-2-yl)acetamide]
perivascular T cells (CD3+) in the pulmonary arterial perivascular region [1]: significant reduction | CH-induced increase in RV remodeling (Fulton's index) (CH-induced PH): attenuated | CH-induced increase in RVSP (CH-induced PH): attenuated | CH-induced increase in pulmonary arterial remodeling (% wall thickness) (CH-induced PH): attenuated | already elevated RVSP (established PH due to CH; 3 weeks CH then SR1001 (0.625 mg/day for 25 g mouse, s.c. osmotic pump) for additional 2 weeks in CH): significantly decreased | perivascular T cells in the lungs (established PH due to CH; [4]): significant decrease | pulmonary arterial remodeling (established PH due to CH; [4]): no effect | RV remodeling (Fulton's index) (established PH due to CH; 3 weeks CH then SR1001 for additional 2 weeks in CH, p<0.0583): strong trend for a decrease | activity of nuclear receptor RORα (RORα): inhibits the activity | activity of nuclear receptor RORγt (RORγt): inhibits the activity | TH17 cell development in vitro (TH17 cell development [2]): inhibits TH17 cell development | TH17 cell development in vivo (TH17 cell development [3]): inhibits TH17 cell development
